# Paper PMC9322451 (Clinical Pharmacology in Drug Development, 2022)
# Where two headings read alike, the source gives them in different places.
# What was measured:
# [1] = Phase 1 part A: PK after single and multiple once-daily oral doses; type: in vivo, human; settings: for AUC(0-inf) / AUC(0-t) / Cmax / half-life / Tmax / AUC: human, plasma, po; for AUC(0-inf) / AUC(0-t) / Cmax / half-life / AUC: mean (CV%); for half-life: read-out: t1/2 (converted); for Tmax: median (range), read-out: Tmax
# Protocol: The study was conducted sequentially in 2 parts. […] Eligible participants were admitted to the clinical unit for single‐dose evaluation from days −2 to 2 and from days 29 to 31 for steady‐state PK and safety evaluation. Participants self‐administered daily doses after an overnight fast of at least 10 hours on days 4 to 30, with outpatient visits on days 3, 4, 7, 14, 21, 32, 33, and 61 (Figure S1).
# For part A, blood samples for PK assessments were collected following administration on days 1 and 30 at 0 (predose), 0.5, 0.75, 1, 1.5, 2, 3, 4, 8, 12, 24, 48, and 72 hours after dosing. In addition, predose PK samples were collected on days 4, 7, 14, and 21. PK parameters following single and multiple once‐daily dosing were evaluated using noncompartmental analysis, including the AUC over a dosing interval (AUCτ), AUC from time 0 to the last time with quantifiable concentration (AUClast), AUC from time 0 to infinite time (AUC∞), maximum plasma concentration (Cmax), minimum plasma concentration, time to maximum plasma concentration (tmax), terminal elimination half‐life (t1/2), apparent total drug clearance following oral administration (CL/F), and predose concentration.
# All statistical analyses were performed using SAS version 9.3 or higher (SAS Institute Inc., Cary, North Carolina). Analysis of PK data was performed using WinNonlin Professional Software version 8.0 or higher (Certara, LP, Princeton, New Jersey). […] Categorical data were summarized by race and treatment group in terms of number of participants with data at relevant time points, frequency counts, and percentages. PK concentrations below the limit of quantification (BLQ) at time 0 on days 1 and 30 were considered 0. Postdose BLQ data were considered missing for PK parameter calculation. For mean concentrations and graphic presentation, all BLQ data were imputed as 0.
# [2] = system: breast cancer resistance protein; parameters: method as in unpublished data; settings: ref unpublished data, read-out: half maximal inhibitory concentration; cited from earlier work
# CYP2E1 = system: CYP2E1; parameters: method as in unpublished data; settings: ref unpublished data; cited from earlier work
# [3] = 10 mg, Day 30, 10 mg once daily, Japanese
# [4] = 10 mg, Day 30, 10 mg once daily, White
# [5] = 25 mg, Day 30, 25 mg once daily, Japanese
# [6] = 25 mg, Day 30, 25 mg once daily, White
# [7] = 40 mg, Day 30, 40 mg once daily, Japanese
# [8] = 40 mg, Day 30, 40 mg once daily, White
smiles,measurement,setting,value
Cn1c(=O)oc2ccc(-c3ccc(C[C@@H](C#N)NC(=O)[C@@H]4CNCCCO4)cc3)cc21 [Brensocatib],AUC(0-inf),[1]; [3],1980 ng·h/mL
same,AUC(0-t),[1]; [3],1730 ng·h/mL
same,Cmax,[1]; [3],80.5 ng/mL
same,half-life,[1]; [3],22.5 h
same,Tmax,[1]; [3],1.26 h
same,AUC,[1]; [4],1180 ng·h/mL
same,AUC(0-inf),[1]; [4],2540 ng·h/mL
same,AUC(0-t),[1]; [4],2100 ng·h/mL
same,Cmax,[1]; [4],89.5 ng/mL
same,half-life,[1]; [4],28.1 h
same,Tmax,[1]; [4],1.02 h
same,AUC,"[1]; 25 mg, Day 1, 25 mg, Japanese",2010 ng·h/mL
same,AUC(0-inf),"[1]; 25 mg, Day 1, 25 mg, Japanese",3390 ng·h/mL
same,AUC(0-t),"[1]; 25 mg, Day 1, 25 mg, Japanese",3040 ng·h/mL
same,Cmax,"[1]; 25 mg, Day 1, 25 mg, Japanese",209 ng/mL
same,half-life,"[1]; 25 mg, Day 1, 25 mg, Japanese",21.7 h
same,Tmax,"[1]; 25 mg, Day 1, 25 mg, Japanese",1.5 h
same,AUC,"[1]; 25 mg, Day 1, 25 mg, White",1720 ng·h/mL
same,AUC(0-inf),"[1]; 25 mg, Day 1, 25 mg, White",3200 ng·h/mL
same,AUC(0-t),"[1]; 25 mg, Day 1, 25 mg, White",2810 ng·h/mL
same,Cmax,"[1]; 25 mg, Day 1, 25 mg, White",161 ng/mL
same,half-life,"[1]; 25 mg, Day 1, 25 mg, White",24.5 h
same,Tmax,"[1]; 25 mg, Day 1, 25 mg, White",1.35 h
same,AUC,[1]; [5],4170 ng·h/mL
same,AUC(0-inf),[1]; [5],7890 ng·h/mL
same,AUC(0-t),[1]; [5],6890 ng·h/mL
same,Cmax,[1]; [5],301 ng/mL
same,half-life,[1]; [5],23.3 h
same,Tmax,[1]; [5],1.75 h
same,AUC,[1]; [6],3870 ng·h/mL
same,AUC(0-inf),[1]; [6],8160 ng·h/mL
same,AUC(0-t),[1]; [6],6720 ng·h/mL
same,Cmax,[1]; [6],265 ng/mL
same,half-life,[1]; [6],28.6 h
same,Tmax,[1]; [6],1.02 h
same,AUC,"[1]; 40 mg, Day 1, 40 mg, Japanese",2660 ng·h/mL
same,AUC(0-inf),"[1]; 40 mg, Day 1, 40 mg, Japanese",4580 ng·h/mL
same,AUC(0-t),"[1]; 40 mg, Day 1, 40 mg, Japanese",4040 ng·h/mL
same,Cmax,"[1]; 40 mg, Day 1, 40 mg, Japanese",245 ng/mL
same,half-life,"[1]; 40 mg, Day 1, 40 mg, Japanese",23.2 h
same,Tmax,"[1]; 40 mg, Day 1, 40 mg, Japanese",1.5 h
same,AUC,"[1]; 40 mg, Day 1, 40 mg, White",3420 ng·h/mL
same,AUC(0-inf),"[1]; 40 mg, Day 1, 40 mg, White",5930 ng·h/mL
same,AUC(0-t),"[1]; 40 mg, Day 1, 40 mg, White",5300 ng·h/mL
same,Cmax,"[1]; 40 mg, Day 1, 40 mg, White",328 ng/mL
same,half-life,"[1]; 40 mg, Day 1, 40 mg, White",22.1 h
same,Tmax,"[1]; 40 mg, Day 1, 40 mg, White",1.27 h
same,AUC,[1]; [7],4010 ng·h/mL
same,AUC(0-inf),[1]; [7],7110 ng·h/mL
same,AUC(0-t),[1]; [7],6400 ng·h/mL
same,Cmax,[1]; [7],334 ng/mL
same,half-life,[1]; [7],21.9 h
same,Tmax,[1]; [7],1.03 h
same,AUC,[1]; [8],6470 ng·h/mL
same,AUC(0-inf),[1]; [8],12200 ng·h/mL
same,AUC(0-t),[1]; [8],10600 ng·h/mL
same,Cmax,[1]; [8],467 ng/mL
same,half-life,[1]; [8],23.6 h
same,Tmax,[1]; [8],1.49 h
same,accumulation in maximum plasma concentration and AUC at steady state,[1]; once-daily dosing,≈ 2 fold
same,Dose‐normalized Cmax lower in Japanese than in White participants,[1]; pooled dose groups,19.1%
same,dose‐normalized AUCs lower in Japanese than in White participants,[1]; pooled dose groups,≈ 25.6%
same,IC50,[2],> 11 µM
same,CYP inhibition,CYP2E1,no effect
